Experimental findings from patent US12527833B2, “Pharmaceutical composition made from hydrophobic phytochemicals dispersed in sesame oil to enhance bioactivity” (ARJUNA NATURAL PVT. LTD., priority 2017, dated 2026) are described below.

Experiment [1] concerns Carrageenan Induced Paw Edema. Briefly: Anti-inflammatory activity in carrageenan induced paw edema in rats (Example 11). It is filed as in vivo, SD rats. The conditions noted are these: 6 h after carrageenan; oral; dose per group 10-100 mg/Kg; 6 rats per group. The protocol: SD rats (M/F) weighing 180-220 gm. were selected for the study. The animals were acclimatized for a period of five days and they were fed with standard pellet diet and water ad libitum. After five days of acclimatization, the rats were deprived of food, but had free access to drinking water for 12 hours prior to the experiment. Right hind paw of each rat was marked at the tibio-tarsal junction and baseline paw volume was determined using a digital plethysmometer (UGO BASILE, ITALY). Rats were divided into different groups keeping 6 rats in each group. Test sample/standard NSAID/vehicle was fed orally at designated dose. After 30 minutes of test sample/standard/vehicle, 0.1 ml carrageenan (1% suspension in 0.9% NaCl) was injected to the animals in subplantar region of the right hind paw. The paw volume was again determined for all the animals at 6 h after carrageenan injection and percentage inhibition was calculated by using following formula: […]
For orientation: In the carrageenan paw model, swelling and tenderness develop within hours.

The test system of experiment [2] is Carrageenan induced paw edema. The experiment can be described thus: Carrageenan paw edema in rats: blends of Boswellia extract with edible oils (Example 7). It is filed as in vivo. Here is the method:
The animals were housed in polypropylene cages and maintained under standard animal house conditions (12:12 hour light/dark cycle at 24±2° C. and 45-65% relative humidity). The rats had free access to standard pellet diet and water. 24 rats were divided into 8 groups comprising of 3 rats in each group. The rats were deprived of food, but had free access to drinking water for 12 h prior to the experiment. The treatment was as follows: After 12 hour fasting, baseline paw volume was recorded for each rat using digital plethysmometer (Ugo Basile, […]). Carrageenan (0.1 ml of 1%) in saline (0.9% NaCl) was injected into the plantar surface of the right hind paw of the animals. The experimental groups were given the designated extract/standard orally, 30 minutes prior to the injection of the carrageenan. After injection of carrageenan, paw volume was recorded at 3 hr. to 6 hr. post carrageenan. The edema was expressed as an increase in the volume of paw from baseline value, and the percentage of inhibition for each rat was calculated. Each composition of boswellia was obtained through standard mixing of boswellia extract with vegetable oil. • Group 1: 10 mg/Kg Diclofenac. • Group 2: 82 mg/Kg Hydrophobic blend of Boswellia extract (10% AKBA) with sesame oil (2:3). • Group 3: 82 mg/Kg Hydrophobic Boswellia extract (10% AKBA) with coconut oil (2:3). • Group 4: 82 mg/Kg Hydrophobic Boswellia extract (10% AKBA) with olive oil (2:3). • Group 5: 82 mg/Kg Hydrophobic Boswellia extract (10% AKBA) with rice bran (2:3). • Group 6: 82 mg/Kg Hydrophobic Boswellia extract (10% AKBA) with Cotton seed oil (2:3). • Group 7: 82 mg/Kg Hydrophobic Boswellia extract (10% AKBA) with Boswellia fat (2:3). • Group 8: 50 mg/Kg Homogenized dispersion hydrophobic Boswellia extract with 10% AKBA with sesame oil with 10% sesame lignans. (BS-4).

For the compound `O=C(O)Cc1ccccc1Nc1c(Cl)cccc1Cl` [Diclofenac], the “Percentage inhibition in 6 Hours” value in experiment [1] was 86%. The compound further displayed an Avrage percentage inhibition in experiment [2] (average of 3HR and 6HR, doses as in table) of 68.3%. Moreover, the “Percentage inhibition (%) 3HR” value in experiment [2] (paw edema 3 hr post carrageenan, oral 30 min before, Diclofenac 10, oil blends 82, BS-4 50 mg/kg) came to 66.67%. For the same compound, the “Percentage inhibition (%) 6HR” value in experiment [2] (paw edema 6 hr post carrageenan, oral 30 min before, Diclofenac 10, oil blends 82, BS-4 50 mg/kg) was found to be 69.94%.
